Measurements from patent US9278942B2, “Non-steroidal compounds as androgen receptor modulators” (FLX Discoveries Oy, priority 2011, dated 2016).
Read-outs that look alike come from different tables or passages of the source.

Columns and labels:
human AR [1] = target: T1, human AR (Homo sapiens, UniProt P10275); assay: Competitive AR binding assay against [3H]-R1881 in transiently transfected COS-1 cells; settings: compound 13.4 μM, [3H]-R1881 1.34 nM, complete inhibition equals 100%; for inhibition at 13.4 µM: read-out: Inhibition of [3H]-R1881 binding at 1.34 nM ± S.D.
T1 construct: expressed in transfected cells; host or cells: COS-1
T1 sequence (P10275 1-920): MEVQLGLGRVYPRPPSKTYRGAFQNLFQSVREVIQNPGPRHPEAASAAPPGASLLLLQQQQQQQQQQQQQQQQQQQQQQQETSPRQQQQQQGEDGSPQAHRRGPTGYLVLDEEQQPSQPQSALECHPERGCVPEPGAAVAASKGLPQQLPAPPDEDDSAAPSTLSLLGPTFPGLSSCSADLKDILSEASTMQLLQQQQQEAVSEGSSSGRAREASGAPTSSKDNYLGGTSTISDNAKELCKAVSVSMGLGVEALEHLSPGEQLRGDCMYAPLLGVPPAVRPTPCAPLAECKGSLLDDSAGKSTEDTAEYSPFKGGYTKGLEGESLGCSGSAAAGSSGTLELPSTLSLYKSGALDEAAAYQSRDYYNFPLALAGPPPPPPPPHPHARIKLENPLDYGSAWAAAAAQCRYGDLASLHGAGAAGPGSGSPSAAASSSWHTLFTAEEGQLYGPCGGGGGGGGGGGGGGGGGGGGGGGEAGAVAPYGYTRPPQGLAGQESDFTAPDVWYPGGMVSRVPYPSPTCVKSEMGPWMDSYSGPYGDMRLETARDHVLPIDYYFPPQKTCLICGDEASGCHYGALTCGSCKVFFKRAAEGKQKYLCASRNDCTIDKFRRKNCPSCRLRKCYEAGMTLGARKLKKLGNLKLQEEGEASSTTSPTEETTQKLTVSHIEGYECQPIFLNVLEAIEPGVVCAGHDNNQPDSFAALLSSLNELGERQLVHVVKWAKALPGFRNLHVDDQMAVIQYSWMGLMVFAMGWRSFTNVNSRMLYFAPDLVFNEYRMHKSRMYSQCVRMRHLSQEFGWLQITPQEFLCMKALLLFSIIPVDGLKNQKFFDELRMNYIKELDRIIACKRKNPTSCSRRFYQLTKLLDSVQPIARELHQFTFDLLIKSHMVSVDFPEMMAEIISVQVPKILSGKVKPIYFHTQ
Outline: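 COS-1 cells transfected 24 h with human AR vector, then after 36 h exposed 2 h at 37° C to compound at 10000-fold molar excess over 1.34 nM [3H]-R1881. Cell-bound radioactivity counted in triplicate; result given as % inhibition of labelled R1881 binding.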

human AR [2] = target: T1, human AR; assay: AR antagonism assay: inhibition of transcriptional activation of AR (Probasin-luc reporter, COS-1 cells); type: cell-based; settings: compound 10.0 μM, relative luciferase response: 100% for testosterone (no antiandrogenic effect), 0% for complete antagonism; for remaining activity at 10 µM: COS-1, 18 h, read-out: AR antagonism against 100 nM testosterone ± S.D.
Protocol: Determination of the Antiandrogen Activity.
Testosterone was bought from Sigma Chemical Co. (St. Louis, Mo.) and hydroxyflutamide from Chemos GmbH. One day before transfection, COS-1 cells (from ATCC) were seeded into 1 ml of DMEM (Dulbecco's modified Eagle medium, Gibco) with 10% dextran-charcoal-treated fetal bovine serum and 0.25% (vol/vol) Penicillin-Streptomycin (Euroclone) at a density of 70×10^3 cells/well. After medium change to DMEM 2.5% FBS, the cells were transfected for 24 hours with 10 ng/well of human AR expression vector pSG5-hAR, 100 ng/well of reporter plasmid Probasin-luc, and 10 ng/well of control plasmid pCMV-β-gal by using the TransIT method (Micrus Bio TransIT LT1, Transfection Reagent). After the transfection, the cells received treatment of test compounds giving final concentration of 10 μM for each compound. In the antagonist test the wells were also treated with 100 nM final concentration of testosterone. After 18 hours, the cells were washed, lysed and assayed for luciferase and normalization for β-galactosidase activities and protein concentrations. The cells were washed with 100 μl of cold phosphate buffered saline (PBS) and lysed with 35 μl 1× Reporter lysis Buffer (Promega) and frozen (−70° C.) for 30 minutes. Cell lysates were placed in 1.5-ml propylene tubes and centrifuged at 13200×g for 5 minutes at room temperature. For β-galactosidase assay 10 μl of supernatant from each cell extract was transferred to a 96-well plate (96 well Elisa Microplates, PS, Microcon) and incubated for 10 minutes at 37° C. with 65 μl of reaction mixture consisting 0.76 μl 100×Mg-buffer, 12.5 μl ONPG (4 mg/ml), and 54.3 μl of sodium-phosphate buffer (pH 7). The reaction was stopped with treatment of 125 μl Na2CO3. For luciferase assay 10 μl of the supernatant was transferred to a 96-well plate (Greiner Microlon lumitrac 200) and treated with 30 μl of luciferase assay substrate solution (Promega Luciferase Assay System E1501). For the study of protein concentrations 5 μl of the supernatant was transferred to a 96-well plate (Elisa Microplates, PS, Microcon) and mixed with 200 μl of Bio-rad protein assay reagent. The luciferase activities were measured with Thermo Luminoscan Ascent scanner and the protein concentrations and β-galactosidase activities with Thermo Labsystem Multiscan Ex scanner. Also blank and control samples were measured. During the maintenance, transfection, and treatment with tested compounds the cells were incubated in humidified atmosphere with 5% carbon dioxide at 37° C.

Question: With `COc1ccccc1C1=NOC(Cc2ccccc2)(c2ccccc2)C1` (stereo not drawn) [Example 12, 5-Benzyl-3-(2-methoxyphenyl)-5-phenyl-4,5-dihydro-isoxazole] as the compound, how does the melting point read?
Answer: 109.3 to 110.2 °C

Question: With `N#Cc1ccc(C2=NOC(Cc3ccccc3)(c3ccccc3)C2)cc1` (stereo not drawn) [Example 18, 4-(5-Benzyl-5-phenyl-4,5-dihydro-isoxazol-3-yl)-benzonitrile] as the compound, how does the melting point read?
Answer: 104.5 to 107 °C

Question: With `COc1ccc(C2=NOC(Cc3ccccc3)(c3ccccc3)C2)cc1` (stereo not drawn) [Example 14, 5-Benzyl-3-(4-methoxyphenyl)-5-phenyl-4,5-dihydro-isoxazole] as the compound, how does the melting point read?
Answer: 139.3 to 141 °C

Question: Which “Inhibition of [3H]-R1881 binding at 1.34 nM ± S.D.” value (shortened to “Inhibition of [3H]-R1881 binding”) (human AR [1]; Table 2) does the source give for `Fc1ccc(C2=NOC3CCCCCCC23)cc1C(F)(F)F` (stereo not drawn) [Example 43a, 3-(4-Fluoro-3-trifluoromethyl-phenyl)-3a,4,5,6,7,8,9,9a-octahydro-cycloocta[d]isoxazole] here?
Answer: 66.3 ± 9.8%

Question: What about the remaining activity at 10 µM (human AR [2]) of the same compound?
Answer: 57.7 ± 9.9%

Question: Which inhibition at 13.4 µM (human AR [1]; Table 2) does the source give for `N#Cc1ccc(C2=NOC3CCCCC23)c(C(F)(F)F)c1` (stereo not drawn) [Example 89a, 4-(3a,4,5,6,7,7a-Hexahydro-benzo[d]isoxazol-3-yl)-3-trifluoromethyl benzonitrile] here?
Answer: 78.8 ± 0.6%

Question: What about the remaining activity at 10 µM (human AR [2]) of the same compound?
Answer: 27.5 ± 4.1%

Question: With `N#Cc1cccc(C2=NOC3CCCCC23)c1C(F)(F)F` (single isomer, unassigned) [Example 94a, 3-(3a,4,5,6,7,7a-Hexahydro-benzo[d]isoxazol-3-yl)-2-trifluoromethyl-benzonitrile] as the compound, how does the inhibition at 13.4 µM (human AR [1]; Table 3) read?
Answer: 97.4 ± 0.4%

Question: And the “AR antagonism against 100 nM testosterone ± S.D.” value (shortened to “AR antagonism”) (human AR [2])?
Answer: 17.8 ± 3.9%

Question: What does the source list for `N#Cc1ccc(C2=NOC3CCCCCC23)cc1C(F)(F)F` (stereo not drawn) [Example 90ab, 4-(4,5,6,7,8,8a-Hexahydro-3aH-cyclohepta[d]isoxazol-3-yl)-2-trifluoromethyl-benzonitrile]?
Answer: inhibition at 13.4 µM (human AR [1]; Table 2): 98.7 ± 0.6%; remaining activity at 10 µM (human AR [2]): 12.6 ± 0.7%

Question: What does the source list for `Fc1ccc(C2=NOC3CCCC23)cc1C(F)(F)F` (stereo not drawn) [Example 19ab, 3-(4-Fluoro-3-trifluoromethyl-phenyl)-4,5,6,6a-tetrahydro-3aH-cyclopenta[d]-isoxazole]?
Answer: inhibition at 13.4 µM (human AR [1]; Table 2): 84.6 ± 4.9%; remaining activity at 10 µM (human AR [2]): 54.6 ± 2.3%

Question: With `O=[N+]([O-])c1ccc(C2=NOC3CCCCC23)c(C(F)(F)F)c1` (single isomer, unassigned) [Example 38a, 3-(4-Nitro-2-trifluoromethyl-phenyl)-3a,4,5,6,7,7a-hexahydro-benzo-[d]-isoxazole] as the compound, how does the inhibition at 13.4 µM (human AR [1]; Table 1) read?
Answer: 94.5 ± 0.5%

Question: What about the “AR antagonism” value (human AR [2]) of the same compound?
Answer: 2.9 ± 0.5%

Question: Which “Inhibition of [3H]-R1881 binding” value (human AR [1]; Table 2) does the source give for `N#Cc1ccc(C2=NOC3CCCC23)cc1C(F)(F)F` (single isomer, unassigned) [Example 85b, 4-(4,5,6,6a-Tetrahydro-3aH-cyclopenta[d]isoxazol-3-yl)-2-trifluoromethyl-benzonitrile] here?
Answer: 91.8 ± 1.7%

Question: And the “AR antagonism” value (human AR [2])?
Answer: 18.9 ± 0.5%

Question: With `N#Cc1ccc(C2=NOC3CCCCCC23)c(C(F)(F)F)c1` (stereo not drawn) [Example 91a, 4-(4,5,6,7,8,8a-Hexahydro-3aH-cyclohepta[d]isoxazol-3-yl)-3-trifluoromethyl benzonitrile] as the compound, how does the inhibition at 13.4 µM (human AR [1]; Table 2) read?
Answer: 85.4 ± 1.5%

Question: And the remaining activity at 10 µM (human AR [2])?
Answer: 29.8 ± 3.6%

Question: Which inhibition at 13.4 µM (human AR [1]; Table 3) does the source give for `N#Cc1ccc(C2=NOC3CCCC23)c(C(F)(F)F)c1` (stereo not drawn) [Example 86ab, 4-(4,5,6,6a-Tetrahydro-3aH-cyclopenta[d]isoxazol-3-yl)-3-trifluoromethyl-benzonitrile] here?
Answer: 91.7 ± 1.7%

Question: And the remaining activity at 10 µM (human AR [2])?
Answer: 29.3 ± 3.7%

Question: Which inhibition at 13.4 µM (human AR [1]; Table 2) does the source give for `N#Cc1ccc(C2=NOC3CCCCC23)cc1C(F)(F)F` (stereo not drawn) [Example 88ab, 4-(3a,4,5,6,7,7a-Hexahydro-benzo[d]isoxazol-3-yl)-2-trifluoromethyl benzonitrile] here?
Answer: 99.2 ± 0.5%

Question: What about the “AR antagonism” value (human AR [2]) of the same compound?
Answer: 9.2 ± 1.7%

Question: For `Clc1ccc(C2=NOC3CCCCC23)cc1` (single isomer, unassigned) [Example 32b, 3-(4-Chloro-phenyl)-3a,4,5,6,7,7a-hexahydro-benzo[d]-isoxazole], which “Inhibition of [3H]-R1881 binding” value (human AR [1]; Table 1) is on record?
Answer: 0%

Question: What about the “AR antagonism” value (human AR [2]) of the same compound?
Answer: 91.4 ± 7.7%

Question: Which inhibition at 13.4 µM (human AR [1]; Table 2) does the source give for `Fc1ccc(C2=NOC3CCCCCCC23)cc1C(F)(F)F` (stereo not drawn) [Example 43b, 3-(4-Fluoro-3-trifluoromethyl-phenyl)-3a,4,5,6,7,8,9,9a-octahydro-cycloocta[d]isoxazole] here?
Answer: 76 ± 0.3%

Question: What about the “AR antagonism” value (human AR [2]) of the same compound?
Answer: 56.6 ± 1.4%

Question: Which results are given for `N#Cc1ccc(C2=NOC3CCCCCCC23)c(C(F)(F)F)c1` (single isomer, unassigned) [Example 93a, 4-(3a,4,5,6,7,8,9,9a-Octahydro-cycloocta[d]isoxazol-3-yl)-3-trifluoromethyl-benzonitrile]?
Answer: inhibition at 13.4 µM (human AR [1]; Table 3): 87.2 ± 2.9%; AR antagonism against 100 nM testosterone ± S.D. (human AR [2]): 9.4 ± 0.3%

Question: For `Fc1ccc(C2=NOC3CCCCC23)c(C(F)(F)F)c1` (stereo not drawn) [Example 36a, 3-(4-Fluoro-2-trifluoromethyl-phenyl)-3a,4,5,6,7,7a-hexahydro-benzo[d]-isoxazole], which inhibition at 13.4 µM (human AR [1]; Table 2) is on record?
Answer: 84.6 ± 0.7%

Question: What about the remaining activity at 10 µM (human AR [2]) of the same compound?
Answer: 49.7 ± 5.1%

Question: With `N#Cc1ccc(C2=NOC3CCCCCCC23)c(C(F)(F)F)c1` (single isomer, unassigned) [Example 93b, 4-(3a,4,5,6,7,8,9,9a-Octahydro-cycloocta[d]isoxazol-3-yl)-3-trifluoromethyl-benzonitrile] as the compound, how does the “Inhibition of [3H]-R1881 binding” value (human AR [1]; Table 3) read?
Answer: 76.0 ± 4.8%

Question: What about the “AR antagonism” value (human AR [2]) of the same compound?
Answer: 65.5 ± 9.0%

Question: With `c1ccc2c(C3=NOC4CCCCC34)cccc2c1` (single isomer, unassigned) [Example 33a, 3-Naphthalen-1-yl-3a,4,5,6,7,7a-hexahydro-benzo[d]-isoxazole] as the compound, how does the inhibition at 13.4 µM (human AR [1]; Table 1) read?
Answer: 68.4 ± 1.9%

Question: What about the “AR antagonism” value (human AR [2]) of the same compound?
Answer: 40.2 ± 7.1%

Question: Which results are given for `N#Cc1ccc(C2=NOC3CCCCCCC23)cc1C(F)(F)F` (stereo not drawn) [Example 92ab, 4-(3a,4,5,6,7,8,9,9a-Octahydro-cycloocta[d]isoxazol-3-yl)-2-trifluoromethyl-benzonitrile]?
Answer: inhibition at 13.4 µM (human AR [1]; Table 2): 85.8 ± 1.3%; remaining activity at 10 µM (human AR [2]): 24 ± 1.7%

Question: Which results are given for `Fc1ccc(C2=NOC3CCCCCCC23)c(C(F)(F)F)c1` (stereo not drawn) [Example 44a, 3-(4-Fluoro-2-trifluoromethyl-phenyl)-3a,4,5,6,7,8,9,9a-octahydro-cycloocta[d]isoxazole]?
Answer: inhibition at 13.4 µM (human AR [1]; Table 3): 90.3 ± 2.7%; remaining activity at 10 µM (human AR [2]): 19.8 ± 0.5%
